Results from patent publication US9545388B2, “Benzenetricarboxylic acid and methods of use” (GEORGETOWN UNIVERSITY, priority 2012, dated 2017).

Columns and labels:
[1] = test system: bladder cancer cells derived from T24 cells; assay: tumor xenograft, bladder cancer cells derived from T24 in nude mice; format: in vivo, female athymic balbc/nude mice; conditions: BTA 26 mg/kg intra-peritoneal three times a week
Description: (§2) To produce tumor xenografts, 5×10^6 cells were resuspended in PBS and injected subcutaneously in the flanks of female nude mice. […] Mice were pre-treated twice prior to the inoculation of tumor cell lines. Once detectable tumors started to form, their size was measured with a caliper in three dimensions. Serial measurements were made at two-three day intervals after the identification of the initial cellular mass to determine growth curves in vivo. Tumor volume was calculated using the formula for a prolate spheroid: volume=(4/3)×a^2b, where a is the width and b is the length. All animals were sacrificed when the tumors exceeded 1.5 cm. At the completion of experiments, tumors were excised, weighed and statistical significance of differences in tumor volume were made using two factor repeated measures analysis of variance followed by Fisher's last significant difference test for multiple comparisons.

[2] = test system: glucose-derived fatty acid (FA) synthesis; assay: metabolism of D-[1,6-13C2] glucose into fatty acids via NMR mass spectrometry; format: cell-based
Excerpt: The molecular mechanisms by which CIC affects proliferation were examined. The function of CIC has been primarily linked to glucose-derived fatty acid (FA) synthesis, because of its role in citrate export. Therefore, the metabolism of D-[1,6-^13C2] glucose via NMR mass spectrometry was studied. […] Thus, depletion of lipids unlikely represents the only mechanism by which CIC inhibition affects tumor growth.

MDA-MB-231 cells = assay: dose dependent growth inhibition of BTA in MDA-MB-231 cells; format: cell-based, human; conditions: MBA-MD-231 cells, BTA dose response (FIG. 2B)
Description: Cells were grown in Dulbecco's modified Eagle's medium (DMEM, 5 mM glucose, with glutamine and pyruvate from Invitrogen; Carlsbad, Calif.) and supplemented with 10% fetal calf serum (FCS). Early passage cell lines or frozen pellets were used for screening of CIC expression levels (FIG. 1A). All the reagents for the study of complex I activity were purchased from Sigma-Aldrich (St. Louis, Mo.). The CIC specific shRNA vectors were purchased from Origene Technologies (Rockville, Md.). The vectors expressing human CIC untagged or Flag-Myc epitope tagged were also from Origene. The anti-CIC antibody was obtained from Santa Cruz Biotech (Santa Cruz, Calif.), employed at 1:1000 dilution in immuno-blot and at 1:100 in immuno-fluorescence; the anti-mHsp70 and anti-mitofilin antibody were from Novus Biological (Littleton, Colo.) employed at 1:500 in immuno-fluorescence and 1:1000 in immuno-blot; for the LC3 immuno-blot, a mixture of two antibodies was used each at 1:1000 dilution (Novus Biological). The LAMP-1 antibody was from Abcam (Cambridge, UK). The sequences of primers used were: the human cytochome c oxidase: forward: 5′-[…]-3′ (SEQ. ID NO: 1); Reverse:5′ […]-3′ (SEQ. ID NO: 2). The zebrafish NADH-dehydrogenase: forward: 5′-[…]-3′ (SEQ. ID NO: 3); reverse:5′ […]-3′ (SEQ. ID NO: 4). The zebrafish p53: forward: 5′-ACATGA […]-3′ (SEQ. ID NO: 5); Reverse: 5′ […] 3′ (SEQ. ID NO: 6).

H1299 cells [3] = assay: cell viability by trypan blue exclusion in H1299 cells; format: cell-based, human; conditions: 1 mM BTA, trypan blue exclusion (FIG. 2D)
Description: Negative values are due to subtraction of background rates. […] Cell viability was assessed with trypan blue exclusion.
Cells were grown in Dulbecco's modified Eagle's medium (DMEM, 5 mM glucose, with glutamine and pyruvate from Invitrogen; Carlsbad, Calif.) and supplemented with 10% fetal calf serum (FCS). Early passage cell lines or frozen pellets were used for screening of CIC expression levels (FIG. 1A). All the reagents for the study of complex I activity were purchased from Sigma-Aldrich (St. Louis, Mo.). The CIC specific shRNA vectors were purchased from Origene Technologies (Rockville, Md.). The vectors expressing human CIC untagged or Flag-Myc epitope tagged were also from Origene. The anti-CIC antibody was obtained from Santa Cruz Biotech (Santa Cruz, Calif.), employed at 1:1000 dilution in immuno-blot and at 1:100 in immuno-fluorescence; the anti-mHsp70 and anti-mitofilin antibody were from Novus Biological (Littleton, Colo.) employed at 1:500 in immuno-fluorescence and 1:1000 in immuno-blot; for the LC3 immuno-blot, a mixture of two antibodies was used each at 1:1000 dilution (Novus Biological). The LAMP-1 antibody was from Abcam (Cambridge, UK). The sequences of primers used were: the human cytochome c oxidase: forward: 5′-[…]-3′ (SEQ. ID NO: 1); Reverse:5′ […]-3′ (SEQ. ID NO: 2). […]

LC3 = assay: immuno-fluorescence and cellular sub-fractionation for LC3 recruitment to mitochondria; format: cell-based
Description: ATP (Panel B) and Oxygen consumption levels (Panel C) in cells cultured in 5 mM glucose and mock treated (DMSO, Control) or treated with BTA, or in cells expressing CIC or CIC-DN, 16 hours after treatments. […] The percentages of cells distributed in the G1-, S-, or G2-phases of the cells cycle are shown. Apoptotic cells are identified as the Sub-G1 (SG) population. […] Cells were stained with anti-Flag (green, panels 1 and 4) and anti-LC3 (red, panels 2 and 5) antibodies, and counterstained with DAPI. Merged images are shown in panels 3 and 6. […]
Cells were grown in Dulbecco's modified Eagle's medium (DMEM, 5 mM glucose, with glutamine and pyruvate from Invitrogen; Carlsbad, Calif.) and supplemented with 10% fetal calf serum (FCS). […] The anti-CIC antibody was obtained from Santa Cruz Biotech (Santa Cruz, Calif.), employed at 1:1000 dilution in immuno-blot and at 1:100 in immuno-fluorescence; the anti-mHsp70 and anti-mitofilin antibody were from Novus Biological (Littleton, Colo.) employed at 1:500 in immuno-fluorescence and 1:1000 in immuno-blot; for the LC3 immuno-blot, a mixture of two antibodies was used each at 1:1000 dilution (Novus Biological). […]

H1299 cells [4] = assay: cell cycle analysis of H1299 cells under glucose restriction; format: cell-based, human; conditions: glucose restriction (2 mM Glucose), 1 mM BTA
Description: ATP (Panel B) and Oxygen consumption levels (Panel C) in cells cultured in 5 mM glucose and mock treated (DMSO, Control) or treated with BTA, or in cells expressing CIC or CIC-DN, 16 hours after treatments. […] The percentages of cells distributed in the G1-, S-, or G2-phases of the cells cycle are shown. Apoptotic cells are identified as the Sub-G1 (SG) population. […] Cells were stained with anti-Flag (green, panels 1 and 4) and anti-LC3 (red, panels 2 and 5) antibodies, and counterstained with DAPI. Merged images are shown in panels 3 and 6. The results of these immunofluorescence experiments were confirmed with cellular sub-fractionation experiments shown in Panel F. Cytoplasmic (c) and mitochondrial (m) fractions derived from naïve 293T cells (lanes 1,2) or 293T cells expressing CIC (lanes 3,4) or CIC-DN (lanes 5,6) or treated with BTA (lanes 7,8), were probed with anti-CIC, anti-LC3, or anti-mitofilin antibodies, as indicated. The two arrows in the LC3 blot indicate cytosolic (-I) or activated (-II) LC3 forms. […] All images shown were derived from the same autoradiogram at identical times of exposures, but lanes in between samples of interest were eliminated. […] The anti-mitofilin, anti-p62 (employed as a general autophagic marker), anti-CIC, or anti LC3 specific immuno-blots are shown.

[5] = test system: lung cancer H1299 cell lines; assay: tumor xenograft, lung cancer H1299 cells in nude mice; format: in vivo, female athymic balbc/nude mice; conditions: BTA 26 mg/kg intra-peritoneal three times a week
Description: as §2

[6] = test system: breast cancer MDA-MB-231 cells; assay: tumor xenograft, breast cancer MDA-MB-231 cells in nude mice; format: in vivo, female athymic balbc/nude mice; conditions: MDA-MB-231 xenograft, BTA 26 mg/kg intra-peritoneal three times a week, single agent
Description: as §2

[7] = Description: To produce tumor xenografts, 5×10^6 cells were resuspended in PBS and injected subcutaneously in the flanks of female nude mice. For drug treatments, mice were randomized to receive either PBS or a PBS solution of BTA at a concentration 26 mg/kg which was administered via intra-peritoneal route three times a week. Mice were pre-treated twice prior to the inoculation of tumor cell lines. Once detectable tumors started to form, their size was measured with a caliper in three dimensions. Serial measurements were made at two-three day intervals after the identification of the initial cellular mass to determine growth curves in vivo. Tumor volume was calculated using the formula for a prolate spheroid: volume=(4/3)×a^2b, where a is the width and b is the length. All animals were sacrificed when the tumors exceeded 1.5 cm. At the completion of experiments, tumors were excised, weighed and statistical significance of differences in tumor volume were made using two factor repeated measures analysis of variance followed by Fisher's last significant difference test for multiple comparisons. The trial administration of BTA to explore its toxic effects, was conducted on 8 non immuno-compromised mice, randomized in two groups, and injected for five consecutive months. Animals were monitored once a week for the presence of signs of disease, particularly neurological disturbances or weight loss, and they were weighted periodically.
mitochondrial mass = assay: mitochondrial content by mitofilin and Nonyl-Acridine Orange (NOA); format: cell-based
Description: (§1) The concentration of citrate, lactate, isocitrate, and malate were assessed using specific kits from BioVision (Milpitas, Calif.). Cellular ATP levels were determined via the ATP kit (Promega; Fitchburg, Wis.), while oxygen consumption rates were measured using the BD oxygen biosensor systems (OBS) from BD Bioscience (Franklin Lakes, N.J.). Triplicate samples of 50,000 cells were seeded onto 96-well OBS plates. The number of cells was determined at each time point by sampling cells seeded into side-by-side plates. Fluorescence was measured from the bottom of the well every 24 h and measurements were normalized by subtracting the reading from the same well prior to the addition of the cells (blank). For measurement of reactive oxygen species (ROS), H2DCFDA was used (Invitrogen). Mitochondrial mass was assessed by using mitotracker green (Invitrogen), as per manufacturer instructions, or nonyl acridine orange at a final concentration of 300 nM, followed by analysis by flow cytometry. Mitochondrial membrane potential (MMP) was studied with the JC1 assay kit from Cayman Chemical (Ann Arbor, Mich.).

lactate = lactate levels in treated cells; format: cell-based
Description: as §1

CIC = target: T1, CIC (Homo sapiens, UniProt P53007); conditions: in vivo; cited from earlier work
T1 construct: citrate levels in cells expressing endogenous CIC (nM/well) were assessed in 293T cell lines harboring the pcDNA/TO vector; endogenous in cells; host or cells: 293T cells harbouring the empty pcDNA/TO vector

[8] = cell death by trypan blue exclusion in BTA-treated cells with or without rescue agents; format: cell-based

T1 sequence (P53007 14-311): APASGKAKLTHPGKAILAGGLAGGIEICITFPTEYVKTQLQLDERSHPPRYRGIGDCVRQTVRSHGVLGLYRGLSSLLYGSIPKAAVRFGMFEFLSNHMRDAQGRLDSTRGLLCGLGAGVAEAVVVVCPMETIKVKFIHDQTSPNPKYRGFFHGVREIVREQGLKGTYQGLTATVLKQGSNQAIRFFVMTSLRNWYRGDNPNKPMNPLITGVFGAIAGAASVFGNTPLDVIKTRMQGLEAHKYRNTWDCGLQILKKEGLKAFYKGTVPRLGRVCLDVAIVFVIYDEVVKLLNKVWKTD

O=C(O)c1cccc(C(=O)O)c1C(=O)O [BTA, 1,2,3-benzenetricarboxylic acid]
anti-cancer activity (tumor volume) [1]: exhibited anti-cancer activity
total FA levels ([2]; 16 hours after BTA treatment): modestly reduced
ability of cells to convert glucose into FA ([2]; D-[1,6-13C2] glucose): severely reduced the ability of cells to convert glucose into FA
total FA levels ([2]; later time points after BTA treatment): increased
proliferation rates (MDA-MB-231 cells): decreased proliferation rates in a dose-dependent manner
cell growth / viability (H1299 cells [3]): growth inhibition
LC3-II in the mitochondrial fraction (LC3; 293T cells treated with BTA, sub-fractionation immuno-blot (FIG. 5F lane 8)): enrichment of LC3-II in the mitochondria
recruitment of active-lipidated LC3 and lysosomes to the mitochondria (LC3; cells treated with BTA): recruitment of the autophagic machinery
apoptosis (Sub-G1 population) (H1299 cells [4]): induction of apoptosis
anti-cancer activity (tumor volume) [5]: exhibited anti-cancer activity
anti-cancer activity (tumor volume) [6]: exhibited anti-cancer activity
evidence of illness or toxicity ([7]; mouse, in vivo): no evidence of illness or toxicity
evidence of toxicity ([7]; mouse, in vivo): without showing any evidence of toxicity
body weight ([7]; non immuno-compromised mice, BTA twice a week for five consecutive months): small but statistically significant reduction of the body weight
mitochondrial quantity (mitofilin) (mitochondrial mass; time course following BTA treatment (FIG. 5G)): reduction of mitochondrial quantity as a function of time
levels of glucose-derived lactate (lactate): enhanced the levels of glucose-derived lactate
CIC-dependent transport of citrate (CIC): suppresses CIC-dependent transport of citrate
viability of treated cells ([8]; cells treated with BTA): loss of viability

Cn1cnc(N)c2ncnc1-2 [Compound 3MA, 3-Methyladenine, reference compound]
mitochondrial amount (NOA) in BTA-treated cells (mitochondrial mass; 5 mM 3MA added to BTA-treated cells (FIG. 6A)): restored mitochondrial amount

CCCCCCCCCCCCCCCC(=O)O [palmitic acid]
rescue of proliferation of BTA-treated cells ([8]; incubation of BTA-treated cells with palmitic acid): not sufficient to rescue proliferation

CC(=O)N[C@@H](CS)C(=O)O [NAC, N-acetyl-cysteine]
prevention of loss of viability in cells treated with BTA ([8]; 5 mM methyl-pyruvate or 2 mM NAC added to BTA-treated cells (FIG. 5A)): partially prevented loss of viability
